Experimental data reported in ChEMBL document CHEMBL3045572, “Mitochondrial impacts of insecticidal formate esters in insecticide-resistant and insecticide-susceptible Drosophila melanogaster” (Pest Manag Sci, 2009).
Activity calls are given as the source filed them. The calls are words filed in the database; no cut-off is given here.

Legend:
Drosophila melanogaster [1] = test: Disruption of mitochondria in insecticide-susceptible Drosophila melanogaster Hikone-R assessed as increase in cytochrome c release from mitochondria to cytosol at 1 mM by western blot analysis; assay type: functional, organism-based
Drosophila melanogaster [2] = test: Disruption of mitochondria in insecticide-susceptible Drosophila melanogaster Canton-S assessed as increase in cytochrome c release from mitochondria to cytosol at 1 mM by western blot analysis; assay type: functional, organism-based
Drosophila melanogaster [3] = test: Inhibition of cytochrome c oxidase in insecticide-resistance Drosophila melanogaster Hikone-R mitochondria at 100 mM using reduced cytochrome c as substrate by microplate spectrophotometer analysis
Drosophila melanogaster [4] = test: Inhibition of cytochrome c oxidase in insecticide-susceptible Drosophila melanogaster Canton-S mitochondria at 100 mM using reduced cytochrome c as substrate by microplate spectrophotometer analysis
[5] = Inhibition of cytochrome c oxidase in insecticide-resistance Drosophila melanogaster Hikone-R mitochondria using reduced cytochrome c as substrate by microplate spectrophotometer analysis
[6] = Inhibition of cytochrome c oxidase in insecticide-susceptible Drosophila melanogaster Canton-S mitochondria using reduced cytochrome c as substrate by microplate spectrophotometer analysis
Drosophila melanogaster [7] = conditions: Hikone-R, Mitochondria, 10 mM
Description: Inhibition of cytochrome c oxidase in insecticide-resistance Drosophila melanogaster Hikone-R mitochondria at 10 mM using reduced cytochrome c as substrate by microplate spectrophotometer analysis

Drosophila melanogaster [8] = conditions: Canton-S, Mitochondria, 10 mM
Description: Inhibition of cytochrome c oxidase in insecticide-susceptible Drosophila melanogaster Canton-S mitochondria at 10 mM using reduced cytochrome c as substrate by microplate spectrophotometer analysis

Row | Compound | Activity (Drosophila melanogaster [1]) | Activity (Drosophila melanogaster [2]) | inhibition (Drosophila melanogaster [3]) | inhibition (Drosophila melanogaster [4]) | IC50 [5] | IC50 [6] | inhibition (Drosophila melanogaster [7]) | inhibition (Drosophila melanogaster [8])
1 | O=COCCOC=O | Active | Active | < 8% | < 8% |  |  |  | 
2 | CCCCOC=O | Active | Active | < 8% | < 8% |  |  |  | 
3 | CCCCCCOC=O | Active | Active | < 8% | < 8% |  |  |  | 
4 | CCCOC=O | Active | Active | < 8% | < 8% |  |  |  | 
5 | CCCCCC[C@H]1C(=O)O[C@H](C)[C@H](NC(=O)c2cccc(NC=O)c2O)C(=O)O[C@@H](C)[C@@H]1OC(=O)CC(C)C | Active | Active |  |  |  |  |  | 
6 | CC(C)(C)OC=O | Active | Active | < 8% | < 8% |  |  |  | 
7 | CC(=O)[O-].[Na+] [SODIUM ACETATE] |  |  |  |  | > 100 mM | > 100 mM |  | 
8 | CC1(C)CNC(=NN=C(/C=C/c2ccc(C(F)(F)F)cc2)/C=C/c2ccc(C(F)(F)F)cc2)NC1 [HYDRAMETHYLNON] |  |  |  |  | 0.48 mM | 0.47 mM |  | 
9 | O=C[O-].[Na+] [SODIUM FORMATE] | Active | Active |  |  | > 100 mM | > 100 mM | 3% | 3%
10 | CCC(=O)[O-].[Na+] [SODIUM PROPIONATE] |  |  |  |  | > 100 mM | > 100 mM |  | 
11 | CCOC=O | Active | Active | < 8% | < 8% |  |  |  | 
12 | CCCCCCCOC=O | Active | Active | < 8% | < 8% |  |  |  | 
13 | [N-]=[N+]=[N-] [SODIUM AZIDE] |  |  |  |  | > 16 mM | > 16 mM |  | 
14 | COC=O | Active | Active | < 8% | < 8% |  |  |  | 
15 | C=C(C)[C@H]1Cc2c(ccc3c2O[C@@H]2COc4cc(OC)c(OC)cc4[C@@H]2C3=O)O1 | Active | Active |  |  |  |  |  | 
